Source: ChEMBL document CHEMBL1909046, “DrugMatrix in vitro pharmacology data”

System: not listed separately
Assay: DRUGMATRIX: Glutamate, Kainate radioligand binding (ligand: [3H] Kainic acid)
Format: cell membranes, Rattus norvegicus, Wistar, Brain, Membrane
Conditions: Not Active = under 50% inhibition at 10 µM

Question: Which IC50 does the source give for CHROMIC CHLORIDE here?
Answer: Its IC50 is “Not Active”.

Question: What about the Ki of the same compound?
Answer: Its Ki is “Not Active”.

Question: Which IC50 does the source give for `O=C(O)CO` [GLYCOLIC ACID] here?
Answer: Its IC50 is “Not Active”.

Question: And the Ki?
Answer: Its Ki is “Not Active”.

Question: What does the source list for `COC(=O)C[C@](O)(CCC(C)(C)O)C(=O)O[C@@H]1C(OC)=C[C@]23CCCN2CCc2cc4c(cc2[C@H]13)OCO4` [HARRINGTONINE]?
Answer: IC50: Not Active; Ki: Not Active

Question: Which IC50 does the source give for `CC12CCC(CC1=O)C2(C)C` (stereo not given) [CAMPHOR] here?
Answer: The IC50 was “Not Active”.

Question: And the Ki?
Answer: The Ki was “Not Active”.

Biological target: T1, Alpha-1A adrenergic receptor (Rattus norvegicus, UniProt P43140)
T1 sequence (P43140 whole entry): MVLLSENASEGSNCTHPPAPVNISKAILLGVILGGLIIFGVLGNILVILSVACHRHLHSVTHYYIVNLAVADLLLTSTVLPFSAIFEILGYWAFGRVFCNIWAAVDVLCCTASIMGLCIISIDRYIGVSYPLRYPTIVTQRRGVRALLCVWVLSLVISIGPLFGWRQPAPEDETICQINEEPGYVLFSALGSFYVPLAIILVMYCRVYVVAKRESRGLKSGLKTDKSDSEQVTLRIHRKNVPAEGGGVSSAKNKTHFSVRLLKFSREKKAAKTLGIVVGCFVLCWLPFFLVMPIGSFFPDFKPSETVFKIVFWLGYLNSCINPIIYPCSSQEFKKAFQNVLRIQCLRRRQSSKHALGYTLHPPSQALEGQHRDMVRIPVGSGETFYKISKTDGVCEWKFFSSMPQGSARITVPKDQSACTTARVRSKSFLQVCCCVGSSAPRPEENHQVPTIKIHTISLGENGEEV
Assay: DRUGMATRIX: Alpha-1A adrenergic receptor radioligand binding (ligand: prazosin)
Format: cell membranes, Wistar, Submaxillary gland, Membrane
Conditions: Not Active = under 50% inhibition at 10 µM

Question: What does the source list for CHROMIC CHLORIDE?
Answer: IC50: Not Active; Ki: Not Active

Question: For `O=C(O)CO` [GLYCOLIC ACID], which IC50 is on record?
Answer: Its IC50 is “Not Active”.

Question: Which IC50 does the source give for `COC(=O)C[C@](O)(CCC(C)(C)O)C(=O)O[C@@H]1C(OC)=C[C@]23CCCN2CCc2cc4c(cc2[C@H]13)OCO4` [HARRINGTONINE] here?
Answer: The IC50 was “Not Active”.

Question: With `CC12CCC(CC1=O)C2(C)C` (stereo not given) [CAMPHOR] as the compound, how does the IC50 read?
Answer: The IC50 was “Not Active”.

Biological target: Cytochrome P450 2C9 (Homo sapiens, UniProt P11712); further: in other assays of this panel Not Active means under 50% inhibition at 10 µM
Sequence (P11712 whole entry): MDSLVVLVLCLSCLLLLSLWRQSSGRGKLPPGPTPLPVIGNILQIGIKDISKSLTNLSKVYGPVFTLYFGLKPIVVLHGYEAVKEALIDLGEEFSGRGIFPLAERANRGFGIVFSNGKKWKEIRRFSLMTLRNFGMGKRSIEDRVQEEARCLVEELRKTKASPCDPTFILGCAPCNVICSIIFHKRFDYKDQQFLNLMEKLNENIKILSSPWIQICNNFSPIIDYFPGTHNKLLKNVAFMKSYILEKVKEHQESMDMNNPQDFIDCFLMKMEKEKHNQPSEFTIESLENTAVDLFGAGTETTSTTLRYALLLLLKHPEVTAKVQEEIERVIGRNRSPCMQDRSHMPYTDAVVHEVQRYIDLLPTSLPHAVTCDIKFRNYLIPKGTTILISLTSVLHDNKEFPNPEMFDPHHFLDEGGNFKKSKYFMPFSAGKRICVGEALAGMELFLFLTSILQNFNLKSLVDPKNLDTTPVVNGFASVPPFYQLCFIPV
Assay: not given
Conditions: bti-tn-5b1-4

Question: Which results are given for CHROMIC CHLORIDE?
Answer: IC50: Not Active; Ki: Not Active

Question: For `O=C(O)CO` [GLYCOLIC ACID], which IC50 is on record?
Answer: The IC50 was “Not Active”.

Question: And the Ki?
Answer: The Ki was “Not Active”.

Question: Which IC50 does the source give for `COC(=O)C[C@](O)(CCC(C)(C)O)C(=O)O[C@@H]1C(OC)=C[C@]23CCCN2CCc2cc4c(cc2[C@H]13)OCO4` [HARRINGTONINE] here?
Answer: Its IC50 is “Not Active”.

Question: And the Ki?
Answer: The Ki was “Not Active”.

Question: Which IC50 does the source give for `CC12CCC(CC1=O)C2(C)C` (stereo not given) [CAMPHOR] here?
Answer: Its IC50 is “Not Active”.

Question: And the Ki?
Answer: The Ki was “Not Active”.

System: not listed separately
Assay: DRUGMATRIX: Interleukin IL-1 radioligand binding (ligand: [125I] interleukin 1beta)
Format: cell membranes, Membrane
Conditions: nih3t3; Not Active = under 50% inhibition at 10 µM

Question: What does the source list for CHROMIC CHLORIDE?
Answer: IC50: Not Active; Ki: Not Active

Question: With `O=C(O)CO` [GLYCOLIC ACID] as the compound, how does the IC50 read?
Answer: The IC50 was “Not Active”.

Question: What about the Ki of the same compound?
Answer: The Ki was “Not Active”.

Question: Which results are given for `COC(=O)C[C@](O)(CCC(C)(C)O)C(=O)O[C@@H]1C(OC)=C[C@]23CCCN2CCc2cc4c(cc2[C@H]13)OCO4` [HARRINGTONINE]?
Answer: IC50: Not Active; Ki: Not Active

Question: Which results are given for `CC12CCC(CC1=O)C2(C)C` (stereo not given) [CAMPHOR]?
Answer: IC50: Not Active; Ki: Not Active

Biological target: T2, Progesterone receptor (Bos taurus, UniProt Q690N0)
T2 sequence (Q690N0 whole entry): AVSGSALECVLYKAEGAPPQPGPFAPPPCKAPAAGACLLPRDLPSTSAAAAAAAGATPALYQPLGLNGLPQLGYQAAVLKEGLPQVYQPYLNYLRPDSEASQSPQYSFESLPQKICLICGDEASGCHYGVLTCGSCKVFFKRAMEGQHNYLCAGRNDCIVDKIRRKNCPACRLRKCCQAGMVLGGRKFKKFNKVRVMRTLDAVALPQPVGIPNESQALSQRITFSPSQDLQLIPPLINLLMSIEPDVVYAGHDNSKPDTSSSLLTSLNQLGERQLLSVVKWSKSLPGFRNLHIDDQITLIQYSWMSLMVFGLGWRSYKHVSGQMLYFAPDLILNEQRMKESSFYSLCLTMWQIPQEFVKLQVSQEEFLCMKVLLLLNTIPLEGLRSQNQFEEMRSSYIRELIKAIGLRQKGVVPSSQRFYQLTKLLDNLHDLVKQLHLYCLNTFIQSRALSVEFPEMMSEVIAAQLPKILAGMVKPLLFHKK
Assay: DRUGMATRIX: Progesterone radioligand binding (ligand: [3H] R-5020)
Format: tissue-based, Uterus
Conditions: Not Active = under 50% inhibition at 10 µM

Question: Which results are given for CHROMIC CHLORIDE?
Answer: IC50: Not Active; Ki: Not Active

Question: For `O=C(O)CO` [GLYCOLIC ACID], which IC50 is on record?
Answer: The IC50 was “Not Active”.

Question: With `COC(=O)C[C@](O)(CCC(C)(C)O)C(=O)O[C@@H]1C(OC)=C[C@]23CCCN2CCc2cc4c(cc2[C@H]13)OCO4` [HARRINGTONINE] as the compound, how does the IC50 read?
Answer: Its IC50 is “Not Active”.

Question: Which IC50 does the source give for `CC12CCC(CC1=O)C2(C)C` (stereo not given) [CAMPHOR] here?
Answer: The IC50 was “Not Active”.

System: not listed separately
Assay: DRUGMATRIX: Potassium Channel [KATP] radioligand binding (ligand: [3H] Glyburide)
Format: cell membranes, Membrane
Conditions: hit-t15; Not Active = under 50% inhibition at 10 µM

Question: Which IC50 does the source give for CHROMIC CHLORIDE here?
Answer: The IC50 was “Not Active”.

Question: And the Ki?
Answer: Its Ki is “Not Active”.

Question: For `O=C(O)CO` [GLYCOLIC ACID], which IC50 is on record?
Answer: The IC50 was “Not Active”.

Question: What about the Ki of the same compound?
Answer: Its Ki is “Not Active”.

Question: For `COC(=O)C[C@](O)(CCC(C)(C)O)C(=O)O[C@@H]1C(OC)=C[C@]23CCCN2CCc2cc4c(cc2[C@H]13)OCO4` [HARRINGTONINE], which IC50 is on record?
Answer: Its IC50 is “Not Active”.

Question: And the Ki?
Answer: Its Ki is “Not Active”.

Question: Which IC50 does the source give for `CC12CCC(CC1=O)C2(C)C` (stereo not given) [CAMPHOR] here?
Answer: The IC50 was “Not Active”.

Question: What about the Ki of the same compound?
Answer: Its Ki is “Not Active”.

Biological target: T3, Interstitial collagenase (Homo sapiens, UniProt P03956);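 further: MMP-1 enzyme inhibition assay using a peptide substrate; in other assays of this panel Not Active means under 50% inhibition at 10 µM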
T3 sequence (P03956 whole entry): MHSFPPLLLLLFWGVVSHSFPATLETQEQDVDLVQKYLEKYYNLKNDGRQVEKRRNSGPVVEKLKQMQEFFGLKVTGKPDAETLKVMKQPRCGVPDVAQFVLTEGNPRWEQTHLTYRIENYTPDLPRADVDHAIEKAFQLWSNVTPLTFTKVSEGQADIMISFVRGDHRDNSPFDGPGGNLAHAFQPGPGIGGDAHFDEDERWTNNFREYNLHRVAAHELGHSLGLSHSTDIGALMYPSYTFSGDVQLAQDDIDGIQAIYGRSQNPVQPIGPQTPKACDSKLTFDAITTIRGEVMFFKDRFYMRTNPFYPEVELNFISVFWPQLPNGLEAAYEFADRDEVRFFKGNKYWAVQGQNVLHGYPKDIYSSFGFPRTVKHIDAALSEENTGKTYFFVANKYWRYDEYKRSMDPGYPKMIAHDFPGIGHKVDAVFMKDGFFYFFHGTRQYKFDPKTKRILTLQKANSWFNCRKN
Assay: biochemical
Format: tissue-based, Rheumatoid synovial fibroblasts
Conditions: not given

Question: Which results are given for CHROMIC CHLORIDE?
Answer: IC50: Not Active; Ki: Not Active

Question: For `O=C(O)CO` [GLYCOLIC ACID], which IC50 is on record?
Answer: Its IC50 is “Not Active”.

Question: Which IC50 does the source give for `COC(=O)C[C@](O)(CCC(C)(C)O)C(=O)O[C@@H]1C(OC)=C[C@]23CCCN2CCc2cc4c(cc2[C@H]13)OCO4` [HARRINGTONINE] here?
Answer: The IC50 was “Not Active”.

Question: With `CC12CCC(CC1=O)C2(C)C` (stereo not given) [CAMPHOR] as the compound, how does the IC50 read?
Answer: The IC50 was “Not Active”.

Biological target: Cytochrome P450 2C19 (Homo sapiens, UniProt P33261); further: in other assays of this panel Not Active means under 50% inhibition at 10 µM
Sequence (P33261 whole entry): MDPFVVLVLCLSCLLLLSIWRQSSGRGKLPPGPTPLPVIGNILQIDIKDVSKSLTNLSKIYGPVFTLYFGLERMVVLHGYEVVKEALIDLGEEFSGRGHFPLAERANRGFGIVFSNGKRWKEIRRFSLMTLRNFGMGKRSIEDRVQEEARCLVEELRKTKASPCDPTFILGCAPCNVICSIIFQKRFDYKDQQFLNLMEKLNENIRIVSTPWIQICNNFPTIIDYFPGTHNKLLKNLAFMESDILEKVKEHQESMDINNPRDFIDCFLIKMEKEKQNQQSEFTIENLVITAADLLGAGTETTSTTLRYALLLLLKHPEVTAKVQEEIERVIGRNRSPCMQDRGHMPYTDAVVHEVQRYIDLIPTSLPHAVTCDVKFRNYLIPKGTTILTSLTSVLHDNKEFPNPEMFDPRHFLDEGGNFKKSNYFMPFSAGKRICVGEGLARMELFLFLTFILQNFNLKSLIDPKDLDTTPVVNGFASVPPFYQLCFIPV
Assay: not given
Conditions: bti-tn-5b1-4

Question: For CHROMIC CHLORIDE, which IC50 is on record?
Answer: The IC50 was “Not Active”.

Question: And the Ki?
Answer: Its Ki is “Not Active”.

Question: With `O=C(O)CO` [GLYCOLIC ACID] as the compound, how does the IC50 read?
Answer: Its IC50 is “Not Active”.

Question: What about the Ki of the same compound?
Answer: Its Ki is “Not Active”.

Question: For `COC(=O)C[C@](O)(CCC(C)(C)O)C(=O)O[C@@H]1C(OC)=C[C@]23CCCN2CCc2cc4c(cc2[C@H]13)OCO4` [HARRINGTONINE], which IC50 is on record?
Answer: The IC50 was “Not Active”.

Question: What about the Ki of the same compound?
Answer: The Ki was “Not Active”.

Question: What does the source list for `CC12CCC(CC1=O)C2(C)C` (stereo not given) [CAMPHOR]?
Answer: IC50: Not Active; Ki: Not Active
